# Laboratory results: patent US8551999B2, “Heterocyclic compound and pharmaceutical composition thereof” (Otsuka Pharmaceutical Co., Ltd., priority 2007, dated 2013)
row,SMILES,melting point
1,"Br.CC(C)Oc1ccc(CN2CCN(C(=O)c3cc4ccc(Oc5ccc(NC(=O)c6ccc(Cl)c(Cl)c6)cn5)cc4n3C)CC2)cc1F [Example 266, 3,4-Dichloro-N-(6-{2-[4-(3-fluoro-4-isopropoxybenzyl)piperazine-1-carbonyl]-1-methyl-1H-indol-6-yloxy}pyridin-3-yl)benzamide hydrobromide]",244.3 to 247 °C
2,"Br.CCN(C(=O)Nc1ccc(Cl)c(Cl)c1)c1ccc(Oc2ccc3c(c2)cc(C(=O)N2CCN(Cc4ccc5c(c4)OCO5)CC2)n3C)nc1 [Example 583, 1-{6-[2-(4-Benzo[1,3]dioxol-5-ylmethylpiperazine-1-carbonyl)-1-methyl-1H-indol-5-yloxy]pyridin-3-yl}-3-(3,4-dichlorophenyl)-1-ethylurea hydrobromide]",224 to 228 °C
3,"Br.Cn1c(C(=O)N2CCN(Cc3ccc(C(F)(F)F)cc3)CC2)cc2ccc(Oc3ccc(NC(=O)c4ccc(Cl)c(Cl)c4)cn3)cc21 [Example 262, 3,4-Dichloro-N-(6-{1-methyl-2-[4-(4-trifluoromethylbenzyl)-piperazine-1-carbonyl]-1H-indol-6-yloxy}pyridin-3-yl)benzamide hydrobromide]",259.4 to 260.7 °C
4,"COc1ccc(CN2CCN(C(=O)c3cc4cc(Oc5ccc(N(C)C(=O)c6ccc(Cl)c(Cl)c6)cn5)ccc4n3C)CC2)cc1.O=C(O)/C=C\C(=O)O [Example 347, 3,4-Dichloro-N-(6-{2-[4-(4-methoxybenzyl)piperazine-1-carbonyl]-1-methyl-1H-indol-5-yloxy}pyridin-3-yl)-N-methylbenzamide maleate]",171 to 172 °C
5,CCCOc1ccc(CN2CCN(C(=O)c3cc4ccc(Oc5ccc(NC(=O)c6ccc(C(F)(F)F)cc6F)cn5)cc4n3C)CC2)cc1.Cl,264 to 266.3 °C
6,CC(C)Oc1ccc(CN2CCN(C(=O)c3cc4ccc(Oc5ncc(NC(=O)c6ccc(C(F)(F)F)cc6)cn5)cc4n3C)CC2)cc1.Cl,249.8 to 251 °C
7,"Br.Cn1c(C(=O)N2CCN(Cc3ccc(C#N)cc3)CC2)cc2ccc(Oc3ccc(NC(=O)c4ccc(Cl)c(Cl)c4)cn3)cc21 [Example 263, 3,4-Dichloro-N-(6-{2-[4-(4-cyanobenzyl)piperazine-1-carbonyl]-1-methyl-1H-indol-6-yloxy}pyridin-3-yl)benzamide hydrobromide]",263.9 to 267.4 °C
8,"C[C@@H]1CN(Cc2ccccn2)CCN1C(=O)c1cc2cc(Oc3ccc(NC(=O)c4ccc(C(F)(F)F)cc4)cn3)ccc2n1C.O=C(O)C(=O)O.O=C(O)C(=O)O [Example 392, N-{6-[1-Methyl-2-((R)-2-methyl-4-pyridin-2-ylmethylpiperazine-1-carbonyl)-1H-indol-5-yloxy]pyridin-3-yl}-4-trifluoromethyl-benzamide dioxalate]",128 to 130 °C
9,Cl.Cn1c(C(=O)N2CCN(Cc3ccc(OCC(F)F)cc3)CC2)cc2ccc(Oc3ncc(NC(=O)c4ccc(C(F)(F)F)cc4)cn3)cc21,251.4 to 253.5 °C
10,"CN(c1ccc(Oc2ccc3cc(C(=O)N4CCN(Cc5ccc(OCC(F)(F)F)cc5)CC4)[nH]c3c2)nc1)S(=O)(=O)c1ccc(C(F)(F)F)cc1 [Example 39, N-Methyl-N-[6-(2-{4-[4-(2,2,2-trifluoroethoxy)benzyl]piperazine-1-carbonyl}-1H-indol-6-yloxy)pyridin-3-yl]-4-trifluoromethyl-benzenesulfonamide]",200.1 to 200.2 °C
11,"Br.CN(C(=O)c1ccc(Cl)c(Cl)c1)c1ccc(Oc2ccc3cc(C(=O)N4CCN(Cc5ccc(OCCF)cc5)CC4)n(C)c3c2)nc1 [Example 482, 3,4-Dichloro-N-[6-(2-{4-[4-(2-fluoroethoxy)benzyl]piperazine-1-carbonyl}-1-methyl-1H-indol-6-yloxy)pyridin-3-yl]-N-methyl-benzamide hydrobromide]",186.9 to 188.8 °C
12,"Br.CC(C)Cc1ccc(CN2CCN(C(=O)c3cc4ccc(Oc5ccc(NC(=O)c6ccc(Cl)c(Cl)c6)cn5)cc4n3C)CC2)cc1 [Example 260, 3,4-Dichloro-N-(6-{2-[4-(4-isobutylbenzyl)piperazine-1-carbonyl]-1-methyl-1H-indol-6-yloxy}pyridin-3-yl)benzamide hydrobromide]",255.8 to 257.4 °C
13,"Br.Cn1c(C(=O)N2CCN(Cc3ccc(OC(CF)CF)cc3)CC2)cc2ccc(Oc3ccc(NC(=O)c4ccc(Cl)c(Cl)c4)cn3)cc21 [Example 470, 3,4-Dichloro-N-[6-(2-{4-[4-(2-fluoro-1-fluoromethylethoxy)-benzyl]piperazine-1-carbonyl}-1-methyl-1H-indol-6-yloxy)pyridin-3-yl]benzamide hydrobromide]",242.8 to 243.9 °C
14,"Br.CCCOc1ccc(CN2CCN(C(=O)c3cc4ccc(Oc5ccc(NC(=O)c6ccc(Cl)c(Cl)c6)cn5)cc4n3C)CC2)cc1 [Example 256, 3,4-Dichloro-N-(6-{1-methyl-2-[4-(4-propoxybenzyl)piperazine-1-carbonyl]-1H-indol-6-yloxy}pyridin-3-yl)benzamide hydrobromide]",239.2 to 240.4 °C
15,"Br.Cn1c(C(=O)N2CCN(Cc3ccc4c(c3)OCO4)CC2)cc2cc(Oc3ccc(NC(=O)c4ccc(C(F)(F)F)cc4F)cn3)ccc21 [Example 316, N-{6-[2-(4-Benzo[1,3]dioxol-5-ylmethylpiperazine-1-carbonyl)-1-methyl-1H-indol-5-yloxy]pyridin-3-yl}-2-fluoro-4-trifluoromethyl-benzamide hydrobromide]",254 to 257 °C (dec.)
16,"Cc1ccc(S(=O)(=O)N(C)c2cnc(Oc3ccc4cc(C(=O)N5CCN(Cc6ccc(OC(C)C)cc6)CC5)n(C)c4c3)nc2)cc1 [Example 44, N-(2-{2-[4-(4-Isopropoxybenzyl)piperazine-1-carbonyl]-1-methyl-1H-indol-6-yloxy}pyrimidin-5-yl)-4,N-dimethylbenzenesulfonamide]",154.3 to 155.1 °C
17,"Br.COc1ccc(CN2CCN(C(=O)c3cc4cc(Oc5ccc(NC(=O)c6ccc(Cl)c(Cl)c6)cn5)ccc4n3C)CC2)cc1 [Example 349, 3,4-Dichloro-N-(6-{2-[4-(4-methoxybenzyl)piperazine-1-carbonyl]-1-methyl-1H-indol-5-yloxy}pyridin-3-yl)benzamide hydrobromide]",244 to 247 °C (dec.)
18,"Cn1c(C(=O)N2CCN(Cc3ccc4c(c3)OCO4)CC2)cc2cc(Oc3ccc(NC(=O)c4ccc(-n5cccc5)nc4)cn3)ccc21 [Example 225, N-{6-[2-(4-Benzo[1,3]dioxol-5-ylmethylpiperazine-1-carbonyl)-1-methyl-1H-indol-5-yloxy]pyridin-3-yl}-6-pyrrol-1-ylnicotinamide]",155 to 158 °C

# Other lines, results leading:
row,melting point,SMILES
1,140 to 142 °C,"COc1ccccc1CN1CCN(C(=O)c2cc3cc(Oc4ccc(N(C)C(=O)c5ccc(C(F)(F)F)cc5)cn4)ccc3n2C)CC1.O=C(O)C(=O)O [Example 355, N-(6-{2-[4-(2-Methoxybenzyl)piperazine-1-carbonyl]-1-methyl-1H-indol-5-yloxy}pyridin-3-yl)-N-methyl-4-trifluoromethylbenzamide oxalate]"
2,238.6 to 240.1 °C,"Br.CCCOc1ccc(CN2CCN(C(=O)c3cc4ccc(Oc5ccc(N(C)C(=O)c6ccc(C(F)(F)F)cc6Cl)cn5)cc4n3C)CC2)cc1 [Example 450, 2-Chloro-N-methyl-N-(6-{1-methyl-2-[4-(4-propoxybenzyl)-piperazine-1-carbonyl]-1H-indol-6-yloxy}pyridin-3-yl)-4-tri-fluoromethylbenzamide hydrobromide]"
3,199 to 202 °C,"Br.COc1ccc(CN2CCN(C(=O)c3cc4cc(Oc5ccc(N(C)C(=O)c6ccc(C(F)(F)F)c(C)c6)cn5)ccc4n3C)CC2)cc1 [Example 20, N-(6-{2-[4-(4-Methoxybenzyl)piperazine-1-carbonyl]-1-methyl-1H-indol-5-yloxy}pyridin-3-yl)-3,N-dimethyl-4-trifluoromethyl-benzamide hydrobromide]"
4,196 to 198 °C,"Br.Br.CN(C(=O)c1ccc(C(F)(F)F)cc1)c1ccc(Oc2ccc3c(c2)cc(C(=O)N2CCN(Cc4ccncc4)CC2)n3C)nc1 [Example 548, N-Methyl-N-{6-[1-methyl-2-(4-pyridin-4-ylmethylpiperazine-1-carbonyl)-1H-indol-5-yloxy]pyridin-3-yl}-4-trifluoromethyl-benzamide dihydrobromide]"
5,258.7 to 259.6 °C,"Br.CC(C)Oc1ccc(CN2CCN(C(=O)c3cc4ccc(Oc5ccc(NC(=O)c6ccc(C(F)(F)F)cc6)cn5)cc4n3C)CC2)cc1 [Example 476, N-(6-{2-[4-(4-Isopropoxybenzyl)piperazine-1-carbonyl]-1-methyl-1H-indol-6-yloxy}pyridin-3-yl)-4-trifluoromethylbenzamide hydrobromide]"
6,251 to 255 °C (dec.),"Br.CN(C(=O)c1ccc(C(F)(F)F)cc1)c1ccc(Oc2ccc3c(c2)cc(C(=O)N2CCN(Cc4ccc(C#N)cc4)CC2)n3C)nc1 [Example 339, N-(6-{2-[4-(4-Cyanobenzyl)piperazine-1-carbonyl]-1-methyl-1H-indol-5-yloxy}pyridin-3-yl)-N-methyl-4-trifluoromethylbenzamide hydrobromide]"
7,129 to 131 °C,"CC(C)c1ccc(CN2CCN(C(=O)c3cc4cc(Oc5ccc(N(C)C(=O)c6ccc(C(F)(F)F)cc6)cn5)ccc4n3C)CC2)cc1.O=C(O)/C=C\C(=O)O [Example 412, N-(6-{2-[4-(4-Isopropylbenzyl)piperazine-1-carbonyl]-1-methyl-1H-indol-5-yloxy}pyridin-3-yl)-N-methyl-4-trifluoromethylbenzamide maleate]"
8,204 to 208 °C (dec.),"Br.Br.CN(C(=O)c1ccc(Cl)c(Cl)c1)c1ccc(Oc2ccc3c(c2)cc(C(=O)N2CCN(Cc4ccncc4)CC2)n3C)nc1 [Example 554, 3,4-Dichloro-N-methyl-N-{6-[1-methyl-2-(4-pyridin-4-ylmethyl-piperazine-1-carbonyl)-1H-indol-5-yloxy]pyridin-3-yl}benzamide dihydrobromide]"
9,236.8 to 243.8 °C,"Br.CC(C)Oc1ccc(CN2CCN(C(=O)c3cc4cc(Oc5ccc(NC(=O)c6ccc(C(F)(F)F)cc6)cn5)ccc4n3C)CC2)cc1 [Example 460, N-(6-{2-[4-(4-Isopropoxybenzyl)piperazine-1-carbonyl]-1-methyl-1H-indol-5-yloxy}pyridin-3-yl)-4-trifluoromethylbenzamide hydrobromide]"
